Among the data in PubChem BioAssay (NCI) are TGI and GI50 values, retold here.

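Protocol summary: plate cells (96-well), add compound at 5 concentrations, incubate 48 h, interpolate endpoints linearly. GI50: concentration for 50% inhibition of growth. TGI is the concentration that stops growth completely.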

Holding throughout (assay): NCI anticancer screen, dose series, 48 h
For experiment [1], the system named is EKVX NSCLC.
The test system of experiment [2] is LOX IMVI melanoma.
In experiment [3] the test system is HOP-92 NSCLC.
In experiment [4] the test system is ACHN renal.
For experiment [5], the system named is TK-10 renal.
The subject of experiment [6] is NCI-H226 lung.
Experiment [7] deals with RXF 393 renal.
In experiment [8] the test system is COLO 205 colon.
Experiment [9] deals with M14 melanoma.
The subject of experiment [10] is K-562 leukemia.
Experiment [11] has as its system HCC-2998 colon.
Experiment [12] relates to NCI-H23 lung.

Turning to `O=C1Nc2ccccc2S/C1=C\c1ccccc1C(F)(F)F`, the TGI in experiment [1], in [2], in experiment [3], in experiment [4], in experiment [5] and in [6] was > 100 µM in each case. The TGI in experiment [7], in experiment [8] and in experiment [9] was > 100 µM in each case.
With `CCCCCCCCCCCCCCCC(=O)OCC1CCCN2CCCCC12` (centres undefined), the TGI in experiment [1], in experiment [2], in [3], in experiment [10], in [4] and in experiment [11] was > 100 µM throughout. In addition, the TGI in [12], in experiment [5], in [6], in experiment [7], in experiment [8] and in [9] was > 100 µM each time.
In the case of `CC(C)OC(=O)C1=C(O)c2ccccc2S(=O)(=O)N1`, the TGI in experiment [1], in experiment [2], in experiment [10], in experiment [4], in [11] and in experiment [12] was > 100 µM in each case. Also, the TGI in experiment [5], in [6], in [8] and in experiment [9] was > 100 µM each time.
As to `CC1CCC(O)(C(C)(C(=O)O)c2ccccc2)CC1` (centres undefined), the TGI in [1], in experiment [2], in experiment [3], in [10], in experiment [4] and in experiment [12] was > 100 µM in each case. Further, the TGI in [5], in [6], in [7] and in experiment [9] was > 100 µM throughout.
With `Cc1ccc([N+](=O)[O-])cc1NC(=O)C(=O)C(C(=O)c1ccccc1F)C1OC(=O)c2ccccc21` (centres undefined), the TGI in experiment [1] was > 100 µM; in experiment [2], 90.3 µM; in experiment [3], > 100 µM; in experiment [10], > 100 µM; in [4], > 100 µM; in experiment [11] it was 84.6 µM. For the same compound, the TGI in experiment [12] is > 100 µM; in experiment [5] it was > 100 µM; in [6] it was 69.6 µM; in experiment [7] it was 53.9 µM; in [8] it was > 100 µM; in experiment [9] it was > 100 µM.
On to `CC(=O)O[C@H]1CC[C@@]2(C)C(=CC[C@@H]3[C@@H]2CC[C@]2(C)Nc4c(cnn4S(C)(=O)=O)C[C@@H]32)C1`, for which the TGI in experiment [3] is > 100 µM; in experiment [10], > 100 µM; in experiment [11] it was > 100 µM; in experiment [12], > 100 µM; in experiment [6], > 100 µM; in experiment [7] it was 92.2 µM. For the same compound, the TGI was > 100 µM in experiment [8] and 75.2 µM in experiment [9].
As to `O=C(O)NCc1ccccc1` (tested in a mixture with another compound), the TGI in experiment [1] was > 85.1 µM; in experiment [2], > 100 µM; in experiment [3], 67.2 µM; in [10], > 77 µM; in experiment [4], > 100 µM; in [11] it was 51.6 µM. In addition, the TGI in experiment [12] was > 100 µM; in experiment [5], > 87.5 µM; in experiment [6] it was > 79.7 µM; in experiment [7], > 75.5 µM; in [8] it was 43.3 µM; in experiment [9] it was 99.3 µM.
Turning to `Cc1ccc(S(=O)(=O)N/N=c2\c(C)c(C3=NS(=O)(=O)c4cc(S(N)(=O)=O)c(Cl)cc4N3)oc3c(Cl)cc(Cl)cc23)cc1`, the TGI in [1], in experiment [2], in experiment [3], in experiment [10], in [4] and in [11] was > 100 µM in each case. The TGI in experiment [12] was > 100 µM; in experiment [5], > 100 µM; in experiment [6] it was > 100 µM; in [7] it was > 100 µM; in [8] it was 47.8 µM; in [9] it was > 100 µM.
Take `CCOC(=O)Nc1cc2c(c(N)n1)N=C(c1ccccc1)[C@H](C)N2`: the TGI in experiment [1] is > 100 µM; in [2], 17.7 µM; in experiment [3], 47.1 µM; in experiment [4], 55 µM; in experiment [12], 0.0464 µM; in experiment [5], 57.3 µM. Also, the TGI in [6] is 0.0464 µM; in [8], < 0.0001 µM; in experiment [9], 13.8 µM. Moreover, in [5], the GI50 is 14.2 µM.
`C/C(=N\Oc1cc(Cl)ncn1)c1ccccn1`: the TGI in experiment [1] was > 100 µM; in experiment [2], > 100 µM; in experiment [3], 74.3 µM; in [10], > 100 µM; in experiment [4], > 100 µM; in [11] it was 72.1 µM. The TGI in experiment [12] is 92.7 µM; in [5] it was > 100 µM; in experiment [6], > 100 µM; in experiment [7], 95.7 µM; in experiment [8], > 100 µM; in experiment [9], > 100 µM.
For `COc1cc(N/N=C/C#N)cc(OC)c1OC`, the TGI in experiment [1] was > 10 µM; in experiment [2], 3.24 µM; in experiment [10], > 10 µM; in experiment [4], > 10 µM; in [11], > 10 µM; in experiment [12], > 10 µM. The TGI in [5], in [6], in [7], in [8] and in experiment [9] was > 10 µM in each case.
`Cc1cc2c(cc1C)[n+](=O)c(C#N)c(Cl)n2[O-]`: the TGI in experiment [1] is 28.5 µM; in experiment [2], 39.2 µM; in [3] it was 30.3 µM; in [10], > 100 µM; in [4] it was 23.9 µM; in experiment [11], 23.7 µM. The TGI in [12] was 25.1 µM; in experiment [5], 27.9 µM; in [6], > 100 µM; in [7], 26.4 µM; in experiment [8], 21.7 µM.
For `Nc1nncc2c1ccn2C1OC(CO)C(O)C1O` (centres undefined), the TGI in experiment [1], in [2], in experiment [3], in experiment [10], in [4] and in experiment [11] was > 100 µM in each case. Moreover, the TGI in experiment [12], in experiment [5], in [6], in experiment [7], in experiment [8] and in experiment [9] was > 100 µM each time.
With `O=C(CCl)NC(Cc1ccc(F)cc1)C(=O)O` (centres undefined), the TGI in [1], in experiment [2], in experiment [3], in experiment [10], in [11] and in experiment [12] was > 100 µM in each case. The TGI in experiment [6] and in experiment [8] was > 100 µM each time.
Regarding `CCC1CN2CCC1CC2` (centres undefined), the TGI in [1], in experiment [2], in experiment [10], in experiment [11], in experiment [12] and in experiment [6] was > 100 µM each time. Further, the TGI in experiment [7] and in experiment [8] was > 100 µM in each case.
For `N=c1nc2n(cc1F)[C@@H]1O[C@H](CO)[C@@H](O)[C@@H]1O2`, the TGI in [1] is > 100 µM; in [2] it was > 100 µM; in experiment [3] it was > 65.1 µM; in [10] it was > 100 µM; in experiment [4] it was > 34.4 µM; in experiment [11] it was > 100 µM. For the same compound, the TGI in experiment [12] was > 55.8 µM; in experiment [5], > 100 µM; in experiment [6], > 100 µM; in experiment [7], > 56.2 µM; in [8], > 96.9 µM; in experiment [9] it was 7.81 µM.
In the case of `C=C1CC[C@@H](Br)C(C)(C)[C@]12CCC(C)(O)C(Cl)C2` (some centres undefined), the TGI came out at 40.2 µM in experiment [1]; 35.2 µM in experiment [2]; 46.3 µM in experiment [3]; 49.4 µM in experiment [10]; 36.4 µM in [4]; 38.2 µM in [11]. The TGI in experiment [12] turned out to be 64.4 µM; in experiment [5], 78.4 µM; in experiment [6] it was 31 µM; in [7], 34.2 µM; in experiment [8], 29.6 µM.
For `Oc1c2c(c3c4c1N=CC=4CCN=3)-c1c(Br)cc(Br)cc1CCN2`, the TGI in [1] stood at 17.4 µM; in experiment [2], 4.06 µM; in experiment [3], 26.7 µM; in experiment [10] it was 7.57 µM; in experiment [11] it was 4.72 µM; in experiment [12], 3.88 µM. Besides, the results for the TGI in experiment [6], in [7] and in experiment [8] were 16.8 µM, 20.2 µM and 2.62 µM, respectively.
As to `CC(=O)OC/C=C/Cn1ncc(=O)[nH]c1=O`, the TGI in experiment [1], in [2], in experiment [3], in [10], in [4] and in experiment [11] was > 100 µM throughout. Further, the TGI in experiment [6], in [7], in experiment [8] and in experiment [9] was > 100 µM in each case.
Consider `CC[C@H](Nc1nc(N)nc(C)c1C#N)c1nc2cccc(NCc3ccc(C(=O)NO)cc3)c2c(=O)n1-c1ccccc1`, for which the GI50 in experiment [1] was 2.1 µM; in experiment [10] it was 2.44 µM; in experiment [4] it was 1.94 µM; in [5], 2.02 µM; in [6], 1.61 µM; in [7], 1.21 µM. Besides, the GI50 in [8] is 2.05 µM. Moreover, the TGI in experiment [1] is 6.84 µM; in experiment [10], > 100 µM; in [4], 4.67 µM; in experiment [5], 6.88 µM; in experiment [6], 4.13 µM; in experiment [7], 3.05 µM. This compound also yielded a TGI in [8] of 5.31 µM.
Regarding `CCOC(=O)[C@H]1Nc2c(cccc2[N+](=O)[O-])[C@H]2OCC[C@@H]12`, the TGI in experiment [1], in experiment [2], in experiment [10], in experiment [4], in experiment [11] and in experiment [12] was > 100 µM throughout. Besides, the TGI in experiment [5], in [6], in experiment [7], in experiment [8] and in [9] was > 100 µM each time.
